Experimental data taken from US20230263822A1, “MODULATION OF FACTOR 11 EXPRESSION” (Ionis Pharmaceuticals, Inc., priority 2008, published 2023).
“And” between values parts separate entries of the source, which are not always exact repeats. Equal values may be shown once. Strand notation (5' to 3'): a small letter for the sugar, then the base; units joined by * are phosphorothioate-linked, units joined directly phosphodiester-linked; [ ] holds rarer units or linkages, { } end groups; capitals alone tell only the bases. e = 2'-O-(2-methoxyethyl) (MOE); [5mC] = 5-methylcytosine; d = 2'-deoxy (DNA)

Experiments:
[1] = Viscosity of ISIS antisense oligonucleotides, micro-viscometer at 25 °C (Example 47); type: physicochemical; details: for Concentration: concentration of the viscosity sample, UV reading at 260 nM at 85° C.; for Viscosity: in water, micro-viscometer at 25° C., at the concentration of the same line
Method in brief: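 Oligonucleotide (32-35 mg) was dissolved in 120 μL water by heating at 50° C, and viscosity was measured by micro-viscometer at 25° C. Concentration was checked by UV at 260 nm at 85° C on a dilution in water. Screening cut-off: >40 cP at 165-185 mg/mL.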

human Factor 11 mRNA [2] = experiment: Dose-dependent inhibition of human Factor 11 in cyano primary hepatocytes, electroporation (Example 6); type: cell-based; details: ~16 hours
Procedure: Cells were plated at a density of 35,000 cells per well and transfected via electroporation with 0.74 nM, 2.2 nM, 6.7 nM, 20 nM, 60 nM, and 180 nM concentrations of antisense oligonucleotide, as specified in Table 13. After a treatment period of approximately 16 hours, RNA was isolated from the cells and human Factor 11 mRNA levels were measured by quantitative real-time PCR. Human Factor 11 primer probe set RTS 2966 was used to measure mRNA levels. Factor 11 mRNA levels were adjusted according to total RNA content, as measured by RIBOGREEN. Results are presented as percent inhibition of human Factor 11, relative to untreated control cells.

human Factor 11 mRNA [3] = experiment: Dose-dependent inhibition of human Factor 11 in HepB3 cells, electroporation (Example 7); type: cell-based; details: for percent inhibition of human Factor 11 mRNA relative to untreated control cells: ~16 hours
Procedure: The gapmers were also transfected via electroporation and their dose dependent inhibition of human Factor 11 mRNA was measured. Cells were plated at a density of 20,000 cells per well and transfected via electroporation with 41.15 nM, 123.457 nM, 370.37 nM, 1111.11 nM, 3333.33 nM, and 10,000 nM concentrations of antisense oligonucleotide, as specified in Table 15. After a treatment period of approximately 16 hours, RNA was isolated from the cells and human Factor 11 mRNA levels were measured by quantitative real-time PCR. Human Factor 11 primer probe set RTS 2966 was used to measure mRNA levels. Factor 11 mRNA levels were adjusted according to total RNA content, as measured by RIBOGREEN. Results are presented as percent inhibition of human Factor 11, relative to untreated control cells.

Substance	Concentration [1]	Viscosity [1]	percent inhibition of human Factor 11 mRNA relative to untreated control cells (human Factor 11 mRNA [2]; 0.74 nM) [%]	percent inhibition of human Factor 11 mRNA relative to untreated control cells (human Factor 11 mRNA [2]; 2.2 nM) [%]	percent inhibition of human Factor 11 mRNA relative to untreated control cells (human Factor 11 mRNA [2]; 6.7 nM) [%]	percent inhibition of human Factor 11 mRNA relative to untreated control cells (human Factor 11 mRNA [2]; 20 nM) [%]	percent inhibition of human Factor 11 mRNA relative to untreated control cells (human Factor 11 mRNA [2]; 60 nM) [%]	percent inhibition of human Factor 11 mRNA relative to untreated control cells (human Factor 11 mRNA [2]; 180 nM) [%]	IC50 (human Factor 11 mRNA [3]) [nM]	percent inhibition of human Factor 11 mRNA relative to untreated control cells (human Factor 11 mRNA [3]; 41.15 nM) [%]	percent inhibition of human Factor 11 mRNA relative to untreated control cells (human Factor 11 mRNA [3]; 123.457 nM) [%]	percent inhibition of human Factor 11 mRNA relative to untreated control cells (human Factor 11 mRNA [3]; 370.37 nM) [%]	percent inhibition of human Factor 11 mRNA relative to untreated control cells (human Factor 11 mRNA [3]; 1111.11 nM) [%]	percent inhibition of human Factor 11 mRNA relative to untreated control cells (human Factor 11 mRNA [3]; 3333.33 nM) [%]	percent inhibition of human Factor 11 mRNA relative to untreated control cells (human Factor 11 mRNA [3]; 10000 nM) [%]
416850 (antisense TGCACAGTTTCTGGCAGGCC; 5-10-5 gapmer, further chemistry not given here) [compound 416850]	152 mg/mL	67 cP	2	20	24	65	69	67	300	26	38	51	73	90	95
416858 (antisense ACGGCATTGGTGCACAGTTT; 5-10-5 gapmer, further chemistry not given here) [compound 416858]	166 mg/mL	10 cP	2	13	22	44	63	68	300	23	45	52	64	87	92
445531 (antisense eG*eG*e[5mC]*eA*eT*dT*dG*dG*dT*dG*d[5mC]*dA*d[5mC]*eA*eG*eT*eT*eT) [compound 445531]	155 mg/mL and 179 mg/mL	15 cP and 20 cP													
